Values of other authors, collected in patent US11701406B2 (The Board of Trustees of the Leland Stanford Junior …, priority 2017, dated 2023).

Target: T1, NEDD8 activating enzyme (NAE) (Homo sapiens, UniProt Q8TBC4)
T1 sequence (Q8TBC4 2-463 limits assumed): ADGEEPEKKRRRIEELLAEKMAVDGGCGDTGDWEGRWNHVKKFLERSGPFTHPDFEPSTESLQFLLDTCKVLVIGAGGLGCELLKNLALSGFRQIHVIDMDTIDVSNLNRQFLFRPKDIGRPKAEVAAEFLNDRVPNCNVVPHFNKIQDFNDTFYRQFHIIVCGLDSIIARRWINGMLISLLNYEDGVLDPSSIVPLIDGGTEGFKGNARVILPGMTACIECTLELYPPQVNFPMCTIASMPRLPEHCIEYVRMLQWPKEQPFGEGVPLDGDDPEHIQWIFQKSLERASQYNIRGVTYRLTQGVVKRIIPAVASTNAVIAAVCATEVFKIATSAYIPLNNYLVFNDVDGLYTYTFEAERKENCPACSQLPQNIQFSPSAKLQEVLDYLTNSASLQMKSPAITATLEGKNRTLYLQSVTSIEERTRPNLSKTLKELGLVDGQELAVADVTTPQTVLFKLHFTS
T1 sequence (Q13564 2-534 partner limits assumed): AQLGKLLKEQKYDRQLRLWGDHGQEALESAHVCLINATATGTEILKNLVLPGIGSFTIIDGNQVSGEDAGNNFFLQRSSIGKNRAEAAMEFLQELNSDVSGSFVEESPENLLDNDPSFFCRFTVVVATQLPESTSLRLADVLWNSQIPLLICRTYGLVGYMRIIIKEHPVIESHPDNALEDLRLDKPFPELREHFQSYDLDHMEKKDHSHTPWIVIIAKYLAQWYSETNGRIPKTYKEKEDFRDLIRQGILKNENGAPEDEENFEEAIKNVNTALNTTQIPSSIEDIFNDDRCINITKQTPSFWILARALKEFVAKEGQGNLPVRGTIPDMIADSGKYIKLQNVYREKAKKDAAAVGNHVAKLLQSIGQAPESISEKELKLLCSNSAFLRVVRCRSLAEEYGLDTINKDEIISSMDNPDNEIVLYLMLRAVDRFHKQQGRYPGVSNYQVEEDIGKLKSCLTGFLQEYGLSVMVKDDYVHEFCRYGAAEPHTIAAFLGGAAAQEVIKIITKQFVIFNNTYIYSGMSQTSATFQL
Settings: read-out: IC50 (Activity, Inhibitors of NAE)

Compound | IC50 [µM]
Nc1ccc(SCC(=O)Nc2ccc3nc(NC(=O)c4ccc(C(F)(F)F)cc4)sc3c2)cc1 | 0.1
Clc1ccc(CCNC2CCN(Cc3ccccc3)CC2)c(Cl)c1 [M22] | 9
CCN1CCN(C(=O)N[C@@H](C(=O)N[C@@H]2C(=O)N3C2SC(C)(C)[C@@H]3C(=O)O)c2ccccc2)C(=O)C1=O (stereo partly drawn) [Piperacillin] | 1
CN1CCOc2c1ccc(F)c2C#Cc1cn([C@@H]2O[C@@H](CCS(N)(=O)=O)[C@@H](O)[C@H]2O)c2ncnc(N)c12 [TAS 1] | 0.001
CN1CCOc2c1ccc(F)c2C#Cc1cn([C@@H]2C[C@@H](CCS(N)(=O)=O)[C@@H](O)[C@H]2O)c2ncnc(N)c12 [TAS 2] | 0.02
MLN7243 | 0.001
